Test results reported in patent publication US9688651B2, “Geranyl geranyl acetone analogs and uses thereof” (NYKEN Holding B.V., priority 2012, dated 2017).

What was measured:
HSP70 [1] = test: HSP70 protein boosting in HL-1 cardiomyocytes after mild heat shock (Western blot); format: cell-based, mouse; conditions: for induction of mammalian HSP70 protein expression: HL-1, mild heat shock, 10 μM, 6 hours; for HSP boosting HL-1 cardiomyocytes Protein HSP70: mild heat shock 44°C 10 min, then compound 10 μM for 6 hours, Western blot
Description: HL-1 atrial myocytes, a cell line derived from adult mouse atria were obtained from Dr. William Claycomb (Louisiana State University, New Orleans, La., USA). The myocytes were maintained in Complete Claycomb Medium (JRH, UK) supplemented with 100 μM norepinephrine stock (consisting of 10 mM norepinephrine (Sigma, The Netherlands) dissolved in 0.3 mM L-ascorbic acid (Sigma)), 4 mM L-glutamine (Gibco, The Netherlands) and 10% FBS (Sigma). The myocytes were cultured in flasks coated with 0.02% gelatin (Sigma), in a 5% CO2 atmosphere at 37° C.
HL-1 cardiomyocytes were subjected to a mild heat shock of 44° C. for 10 minutes. After a recovery of 10 minutes (37 degrees 5% CO2), compounds were added in a final concentration of 10 μM (dissolved in DMSO, final concentration 0.1%). To control myocytes, 0.1% DMSO was added. After six hours the cells were lysed in RIPA buffer and used for Western blotting as described previously.^3, 10
(§1) Western-blot analysis was performed as described previously^3, 10. Equal amount of protein in SDS-PAGE sample buffer was sonicated before separation on 10% PAA-SDS gels. After transfer to nitrocellulose membranes (Stratagene, The Netherlands), membranes were incubated with primary antibodies against HSP25 (Stressgen, The Netherlands, SPA-801, 1:1000), HSP27 (Stressgen, SPA-800, 1:1000), HSP70 (Stressgen, SPA-810, 1:1000), GAPDH (Affinity Reagents, The Netherlands) or PARP (Santa Cruz, The Netherlands, sc-7150, 1:500). Horseradish peroxidase-conjugated anti-mouse or anti-rabbit (Santa-Cruz Biotechnology, The Netherlands) was used as secondary antibody. Signals were detected by the ECL-detection method (Amersham, The Netherlands) and quantified by densitometry using GeneTools software from Syngene (The Netherlands).
Compounds were also screened for HSP70 boosting effects. Hereto, HL-1 cardiomyocytes were first subjected to a mild heat shock which activates the Heat Shock Factor. After the mild heat shock, compound (10 μM) was added to the medium of HL-1 cardiomyocytes for 6 hours, followed by determination of the HSP70 amount.

HSP70 [2] = test: HSP70 mRNA (qPCR) in HL-1 cardiomyocytes after mild heat shock; format: cell-based, mouse; conditions: then compound 10 μM for 6 hours
Description: (§2) HL-1 cardiomyocytes were subjected to a mild heat shock of 44° C. for 10 minutes. After a recovery of 10 minutes (37 degrees 5% CO2), compounds were added in a final concentration of 10 μM (dissolved in DMSO, final concentration 0.1%). To control myocytes, 0.1% DMSO was added. After six hours the cells were lysed in RIPA buffer and used for Western blotting as described previously.^3, 10 Compounds were also screened for their ability to upregulate HSP gene expression. Hereto, HL-1 cardiomyocytes were first subjected to a mild heat shock which activates the Heat Shock Factor. After the mild heat shock, compound (10 μM) was added to the medium of HL-1 cardiomyocytes for 6 hours, followed by determination of HSP70, HSP25, HSP90 and HSP40 which are targets of the heat shock factor 1 (HSF1) transcription factor. In addition, we determined mRNA levels of the gene encoding the glucose-responsive protein 78 (Grp78) which is HSF1-independent.

HSP25 = HSP25 mRNA (qPCR) in HL-1 cardiomyocytes after mild heat shock; format: cell-based, mouse; design: key: 0 = no induction HSP levels; + = 2-10-fold induction; ++ = 10-30-fold induction; +++ = > 30-fold induction; conditions: then compound 10 μM for 6 hours
Description: as §2

HSP90 = HSP90 mRNA (qPCR) in HL-1 cardiomyocytes after mild heat shock; format: cell-based, mouse; conditions: then compound 10 μM for 6 hours
Description: as §2

HSP40 = HSP40 mRNA (qPCR) in HL-1 cardiomyocytes after mild heat shock; format: cell-based, mouse; conditions: then compound 10 μM for 6 hours
Description: as §2

[3] = test system: glucose-responsive protein 78 (Grp78); test: Grp78 mRNA (qPCR, HSF1-independent) in HL-1 cardiomyocytes; format: cell-based, mouse; design: key to HSP boosting HL-1 cardiomyocytes mRNA (qPCR) Grp78 Not HSF1: 0 = no induction HSP levels; + = 2-10-fold induction; ++ = 10-30-fold induction; +++ = > 30-fold induction; conditions: for upregulation of Grp78 mRNA: HL-1, mild heat shock, 10 μM, 6 hours; for HSP boosting HL-1 cardiomyocytes mRNA (qPCR) Grp78 Not HSF1: mild heat shock, then compound 10 μM for 6 hours
Description: as §2

HSP70 [4] = test: Hsp70 induction in murine proximal tubule (MPT) cells (Western blot); format: cell-based; conditions: 40 μM, 5 hours, outperformed positive control GGA
Description: Murine proximal tubule (MPT) cells were isolated and cultured as described previously (Borkan et al. Heat stress ameliorates ATP depletion-induced sublethal injury in mouse proximal tubule cells. Am. J. Physiol. 1997; F347-55).
The MPT cells were exposed to 40 μM of compound for 5 hours, after which the cells were harvested in RIPA buffer followed by Western blotting.
For Western-blot analysis, equal amount of protein in SDS-PAGE sample buffer was separated on 10% PAA-SDS gels. After transfer to nitrocellulose membranes (Stratagene, USA), membranes were incubated with primary antibodies against HSP70 (Enzo C92F3A/StressGen SP810) or beta-actin (Sigma A541). Horseradish peroxidase-conjugated anti-mouse or anti-sheep (Jackson ImmunoRes) was used as secondary antibody. Signals were detected by the ECL-detection method (Amersham).

[5] = test system: HSP70, HSP25, HSP90 and HSP40; test: Upregulation of HSP gene expression (HSF1 targets) in HL-1 cardiomyocytes; format: cell-based, mouse; conditions: HL-1, mild heat shock, 10 μM, 6 hours
Description: as §2

[6] = test system: MCF-7 breast cancer cells; test: MCF-7 cell death, ratio death/living cells (trypan blue); format: cell-based, human; design: key to Cell Death MCF-7 cancer cells Death/living 100 μM: 0 = no dead cells; + = P < 0.05; ++ = P < 0.01; +++ = P < 0.001; conditions: 100 μM; 16-20 hours; trypan blue
Description: MCF-7 breast cancer cells were cultured in DMEM supplemented with 10% FCS. […] Ratio death and living cells was determined by using trypan blue staining of death cells. The cell pellets were lysed in RIPA buffer and used for Western blot analysis.
Since we observed that some compounds aggravate tachypacing-induced contractile dysfunction, we next investigated if these compounds can induce programmed cell death in a human breast cancer cell-line MCF-7. […] In total 28 compounds were tested for cell death. […] GGA was used as a control as well as non-treated MCF-7 cells. […] The findings indicate that GGA-like compounds which aggravate heart failure can induce programmed cell death in MCF-7 breast cancer cell-line.

HSP27 = HSP27 Western blot in MCF-7 cells; format: cell-based, human; design: key: + = P < 0.05; ++ = P < 0.01; +++ = P < 0.001; conditions: MCF-7 lysate, 16-20 hours
Description: (§3) MCF-7 breast cancer cells were cultured in DMEM supplemented with 10% FCS. Test compounds were added to the medium in a final concentration of […] for 16-20 hours. Ratio death and living cells was determined by using trypan blue staining of death cells. The cell pellets were lysed in RIPA buffer and used for Western blot analysis.
as §1

HSP70 [7] = test: HSP70 Western blot in MCF-7 cells; format: cell-based, human; design: key: + = P < 0.05; ++ = P < 0.01; +++ = P < 0.001; conditions: MCF-7 lysate, 16-20 hours
Description: as §3, §1

PARP = PARP cleavage in MCF-7 cells (Western blot); format: cell-based, human; design: key to Cell Death MCF-7 cancer cells PARP: 0 = no dead cells; + = P < 0.05; ++ = P < 0.01; +++ = P < 0.001; conditions: MCF-7 lysate, Western blot, 16-20 hours
Description: as §3, §1
Since we observed that some compounds aggravate tachypacing-induced contractile dysfunction, we next investigated if these compounds can induce programmed cell death in a human breast cancer cell-line MCF-7. Hereto, MCF-7 cells were incubated for 16 hours with 10 μM of a test compound after which the number of death and living cells was determined. In total 28 compounds were tested for cell death. […] GGA was used as a control as well as non-treated MCF-7 cells. […] The findings indicate that GGA-like compounds which aggravate heart failure can induce programmed cell death in MCF-7 breast cancer cell-line.

SMILES	induction of mammalian HSP70 protein expression (HSP70 [1])	HSP boosting HL-1 cardiomyocytes Protein HSP70 (HSP70 [1])	HSP boosting HL-1 cardiomyocytes mRNA (qPCR) HSP 70 (HSP70 [2])	HSP boosting HL-1 cardiomyocytes mRNA (qPCR) HSP 25 (HSP25)	HSP boosting HL-1 cardiomyocytes mRNA (qPCR) HSP 90 (HSP90)	HSP boosting HL-1 cardiomyocytes mRNA (qPCR) HSP 40 (HSP40)	upregulation of Grp78 mRNA [3]	HSP boosting HL-1 cardiomyocytes mRNA (qPCR) Grp78 Not HSF1 [3]	induction of HSP70 expression in renal (MPT) cells (HSP70 [4])	induction of HSP gene expression [5]	Cell Death MCF-7 cancer cells Death/living 100 μM [6]	Cell Death MCF-7 cancer cells HSP 27 (HSP27)	Cell Death MCF-7 cancer cells HSP 70 (HSP70 [7])	Cell Death MCF-7 cancer cells PARP (PARP)
CC(C)=CCC/C(C)=C/CCc1cc(O)n[nH]1 [Compound 62, (E)-5-(4,8-dimethylnona-3,7-dien-1-yl)-1H-pyrazol-3-ol]	potent inducers	++ (++ = 10-30-fold induction)	+ (+ = 2-10-fold induction)	0	+ (+ = 2-10-fold induction)	+ (+ = 2-10-fold induction)	no upregulation	0	strong inducers	strong inducers				
CC(C)=CCC/C(C)=C/CNS(=O)(=O)C(F)(F)F [Compound 52]	potent inducers		+ (+ = 2-10-fold induction)	+ (+ = 2-10-fold induction)	+ (+ = 2-10-fold induction)	+ (+ = 2-10-fold induction)	no upregulation	0	strong inducers	strong inducers				
CC(C)=CCC/C(C)=C/CNS(C)(=O)=O [Compound 51, (E)-N-(3,7-Dimethylocta-2,6-dien-1-yl)methanesulfonamide]	potent inducers		+ (+ = 2-10-fold induction)	+ (+ = 2-10-fold induction)	+ (+ = 2-10-fold induction)	+ (+ = 2-10-fold induction)	no upregulation	0	strong inducers	strong inducers	0	++ (++ = P < 0.01)	+ (+ = P < 0.05)	0
CC(C)=CCC/C(C)=C/CNC(=O)CCC(=O)O [Compound 46]	potent inducers	++ (++ = 10-30-fold induction)	+ (+ = 2-10-fold induction)	++ (++ = 10-30-fold induction)	++ (++ = 10-30-fold induction)	+ (+ = 2-10-fold induction)	no upregulation	0	strong inducers	strong inducers				
CCOC(=O)C(C/C=C(\C)CCC=C(C)C)C(=O)c1ccccc1O (centres unmarked) [Compound 61, (E)-Ethyl 2-(2-hydroxybenzoyl)-5,9-dimethyldeca-4,8-dienoate]	potent inducers	++ (++ = 10-30-fold induction)	+ (+ = 2-10-fold induction)	+ (+ = 2-10-fold induction)	+ (+ = 2-10-fold induction)	+ (+ = 2-10-fold induction)	no upregulation	0	strong inducers	strong inducers	0	0	0	0
CC(=O)CC(=O)CC/C=C(\C)CCC=C(C)C [Compound 28, (E)-8,12-Dimethyltrideca-7,11-Diene-2,4-Dione]	potent inducers		+ (+ = 2-10-fold induction)	+ (+ = 2-10-fold induction)	+ (+ = 2-10-fold induction)	+ (+ = 2-10-fold induction)	no upregulation	0		strong inducers	0	++ (++ = P < 0.01)	0	0
